Legend:
surinam grass = assay: Test B pre/postemergence surinam grass; format: in vivo, Brachiaria decumbens
Procedure, shortened: (§1)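 Response is a visual 0-to-10 score relative to untreated plants, where 0 means no effect and 10 means complete control, taken twelve to sixteen days after application. Treatments went onto soil at planting and onto foliage of 1- to 4-leaf plants, using a surfactant-containing non-phytotoxic solvent.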

sugar beet = assay: Test B pre/postemergence sugar beet; format: in vivo, Beta vulgaris
Procedure, shortened: as §1

morningglory = assay: Test B pre/postemergence morningglory; format: in vivo, Ipomoea hederacea
Procedure, shortened: as §1

purple nutsedge = assay: Test B pre/postemergence purple nutsedge; format: in vivo, Cyperus rotundus
Procedure, shortened: as §1

corn = assay: Test B pre/postemergence corn; format: in vivo, Zea mays
Procedure, shortened: as §1

wheat = assay: Test B pre/postemergence wheat; format: in vivo, Triticum aestivum
Procedure, shortened: as §1

cocklebur = assay: Test B pre/postemergence cocklebur; format: in vivo, Xanthium strumarium
Procedure, shortened: as §1

crabgrass = assay: Test B pre/postemergence crabgrass; format: in vivo, Digitaria sanguinalis
Procedure, shortened: as §1

duck salad = assay: Test B flood test duck salad; format: in vivo, Heteranthera limosa
Procedure, shortened: (§2)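 Read-out is a visual response score from 0 (no effect) to 10 (complete control), assigned by comparison with untreated controls. Treatment was applied at the 2-leaf stage, and plants stayed in the greenhouse for twelve to sixteen days before scoring.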

rice = assay: Test B flood test rice; format: in vivo, Oryza sativa
Procedure, shortened: as §2

velvetleaf = assay: Test B pre/postemergence velvetleaf; format: in vivo, Abutilon theophrasti
Procedure, shortened: as §1

blackgrass = assay: Test B pre/postemergence blackgrass; format: in vivo, Alopecurus myosuroides
Procedure, shortened: as §1

giant foxtail = assay: Test B pre/postemergence giant foxtail; format: in vivo, Setaria faberii
Procedure, shortened: as §1

smallflower flatsedge = assay: Test B flood test smallflower flatsedge; format: in vivo, Cyperus difformis
Procedure, shortened: as §2

pigweed = assay: Test B pre/postemergence pigweed; format: in vivo, Amaranthus retroflexus
Procedure, shortened: as §1

rape = assay: Test B pre/postemergence rape; format: in vivo, Brassica napus
Procedure, shortened: as §1

[1] = Preemergence, Rate 62 g/ha, scale of 0 to 10 where 0 is no effect and 10 is complete control
[2] = Preemergence, Rate 250 g/ha, scale of 0 to 10 where 0 is no effect and 10 is complete control
[3] = Preemergence, Rate 500 g/ha, scale of 0 to 10 where 0 is no effect and 10 is complete control
[4] = Rate 62 g/ha, Postemergence, scale 0 to 10 (0 no effect, 10 complete control)
[5] = Rate 125 g/ha, Postemergence, scale of 0 to 10 where 0 is no effect and 10 is complete control
[6] = Rate 250 g/ha, Postemergence, scale of 0 to 10 where 0 is no effect and 10 is complete control
[7] = Rate 500 g/ha, Postemergence, scale 0 to 10, 0 no effect, 10 complete control
[8] = Rate 62 g/ha, headed Pre-emergence (flood test species), scale 0 to 10 (0 no effect, 10 complete control)
[9] = Rate 125 g/ha, Pre-emergence, flood test species, scale 0 to 10 where 0 is no effect and 10 is complete control
[10] = Rate 250 g/ha, Pre-emergence, flood-test species, scale 0 to 10, 0 is no effect, 10 is complete control
[11] = Rate 500 g/ha, Pre-emergence, flood test species, scale 0 to 10 (0 no effect, 10 complete control)

Q: `CC(C)N(C(=O)n1oc(=O)n(Cc2nnsc2Cl)c1=O)c1ccc(F)cc1F` [Compound 320] was tested. Which “B. signalgrass plant response rating” value (surinam grass; [1]) did it give?
A: 0

Q: And the “B. signalgrass plant response rating (0 to 10 scale, 0 is no effect, 10 is complete control)” value (surinam grass; Preemergence, Rate 125 g/ha)?
A: 1

Q: What about the “B. signalgrass plant response rating” value (surinam grass; [2]) of the same molecule?
A: 2

Q: What about the “B. signalgrass plant response rating” value (surinam grass; [3]) of the same molecule?
A: 3

Q: What about the “B. signalgrass plant response rating” value (surinam grass; [4]) of the same molecule?
A: 0

Q: And the “B. signalgrass plant response rating” value (surinam grass; [5])?
A: 0

Q: What about the “Plant response rating, B. signalgrass” value (surinam grass; [6]) of the same molecule?
A: 0

Q: What about the “B. signalgrass plant response rating” value (surinam grass; [7]) of the same molecule?
A: 0

Q: What about the “Sugarbeets plant response rating” value (sugar beet; [1]) of the same molecule?
A: 0

Q: What about the “Sugarbeets plant response rating (0 to 10 scale)” value (sugar beet; Preemergence, Rate 125 g/ha) of the same molecule?
A: 0

Q: And the “Sugarbeets plant response rating” value (sugar beet; [2])?
A: 0

Q: What about the “Sugarbeets plant response rating” value (sugar beet; [3]) of the same molecule?
A: 0

Q: What about the “Sugarbeets plant response rating” value (sugar beet; [4]) of the same molecule?
A: 0

Q: What about the “Sugarbeets plant response rating” value (sugar beet; [5]) of the same molecule?
A: 2

Q: What about the “Plant response rating, Sugarbeets” value (sugar beet; [6]) of the same molecule?
A: 2

Q: And the “Morningglory plant response rating” value (morningglory; [1])?
A: 0

Q: What about the “Morningglory plant response rating (0 to 10 scale)” value (morningglory; Preemergence, Rate 125 g/ha) of the same molecule?
A: 0

Q: What about the “Morningglory plant response rating” value (morningglory; [2]) of the same molecule?
A: 0

Q: And the “Morningglory plant response rating” value (morningglory; [3])?
A: 0

Q: And the “Morningglory plant response rating” value (morningglory; [4])?
A: 1

Q: And the “Morningglory plant response rating” value (morningglory; [5])?
A: 1

Q: What about the “Plant response rating, Morningglory” value (morningglory; [6]) of the same molecule?
A: 3

Q: What about the “Nutsedge plant response rating” value (purple nutsedge; [1]) of the same molecule?
A: 0

Q: What about the “Nutsedge plant response rating (0 to 10 scale)” value (purple nutsedge; Preemergence, Rate 125 g/ha) of the same molecule?
A: 0

Q: And the “Nutsedge plant response rating” value (purple nutsedge; [2])?
A: 0

Q: What about the “Nutsedge plant response rating” value (purple nutsedge; [3]) of the same molecule?
A: 0

Q: And the “Nutsedge plant response rating” value (purple nutsedge; [4])?
A: 0

Q: What about the “Nutsedge plant response rating” value (purple nutsedge; [5]) of the same molecule?
A: 0

Q: And the “Plant response rating, Nutsedge” value (purple nutsedge; [6])?
A: 0

Q: What about the “Corn plant response rating” value (corn; [1]) of the same molecule?
A: 0

Q: What about the “Corn plant response rating (0 to 10 scale)” value (corn; Preemergence, Rate 125 g/ha) of the same molecule?
A: 0

Q: What about the “Corn plant response rating” value (corn; [2]) of the same molecule?
A: 0

Q: What about the “Corn plant response rating” value (corn; [3]) of the same molecule?
A: 0

Q: And the “Corn plant response rating” value (corn; [4])?
A: 0

Q: And the “Corn plant response rating” value (corn; [5])?
A: 0

Q: What about the “Plant response rating, Corn” value (corn; [6]) of the same molecule?
A: 0

Q: And the “Corn plant response rating” value (corn; [7])?
A: 0

Q: What about the “Wheat plant response rating” value (wheat; [1]) of the same molecule?
A: 0

Q: What about the “Wheat plant response rating (0 to 10 scale)” value (wheat; Preemergence, Rate 125 g/ha) of the same molecule?
A: 0

Q: What about the “Wheat plant response rating” value (wheat; [2]) of the same molecule?
A: 0

Q: And the “Wheat plant response rating” value (wheat; [3])?
A: 0

Q: What about the “Wheat plant response rating” value (wheat; [4]) of the same molecule?
A: 0

Q: What about the “Wheat plant response rating” value (wheat; [5]) of the same molecule?
A: 0

Q: What about the “Plant response rating, Wheat” value (wheat; [6]) of the same molecule?
A: 0

Q: What about the “Cocklebur plant response rating” value (cocklebur; [1]) of the same molecule?
A: 0

Q: And the “Cocklebur plant response rating (0 to 10 scale)” value (cocklebur; Preemergence, Rate 125 g/ha)?
A: 0

Q: What about the “Cocklebur plant response rating” value (cocklebur; [3]) of the same molecule?
A: 0

Q: What about the “Cocklebur plant response rating” value (cocklebur; [4]) of the same molecule?
A: 0

Q: And the “Cocklebur plant response rating” value (cocklebur; [5])?
A: 0

Q: And the “Plant response rating, Cocklebur” value (cocklebur; [6])?
A: 0

Q: And the “Cocklebur plant response rating” value (cocklebur; [7])?
A: 0

Q: And the “Crabgrass plant response rating” value (crabgrass; [1])?
A: 2

Q: What about the “Crabgrass plant response rating (0 to 10 scale)” value (crabgrass; Preemergence, Rate 125 g/ha) of the same molecule?
A: 3

Q: And the “Crabgrass plant response rating” value (crabgrass; [2])?
A: 3

Q: What about the “Crabgrass plant response rating” value (crabgrass; [3]) of the same molecule?
A: 7

Q: What about the “Crabgrass plant response rating” value (crabgrass; [4]) of the same molecule?
A: 0

Q: And the “Crabgrass plant response rating” value (crabgrass; [5])?
A: 0

Q: What about the “Plant response rating, Crabgrass” value (crabgrass; [6]) of the same molecule?
A: 0

Q: What about the “Ducksalad plant response rating” value (duck salad; [8]) of the same molecule?
A: 0

Q: And the “Ducksalad plant response rating” value (duck salad; [9])?
A: 0

Q: And the “Ducksalad plant response rating” value (duck salad; [10])?
A: 0

Q: What about the “Ducksalad plant response rating” value (duck salad; [11]) of the same molecule?
A: 0

Q: What about the “Rice plant response rating” value (rice; [8]) of the same molecule?
A: 0

Q: And the “Rice plant response rating” value (rice; [9])?
A: 0

Q: What about the “Rice plant response rating” value (rice; [10]) of the same molecule?
A: 0

Q: What about the “Rice plant response rating” value (rice; [11]) of the same molecule?
A: 0

Q: And the “Velvetleaf plant response rating” value (velvetleaf; [1])?
A: 0

Q: And the “Velvetleaf plant response rating (0 to 10 scale)” value (velvetleaf; Preemergence, Rate 125 g/ha)?
A: 0

Q: And the “Velvetleaf plant response rating” value (velvetleaf; [2])?
A: 0

Q: And the “Velvetleaf plant response rating” value (velvetleaf; [3])?
A: 0

Q: And the “Velvetleaf plant response rating” value (velvetleaf; [4])?
A: 0

Q: And the “Velvetleaf plant response rating” value (velvetleaf; [5])?
A: 0

Q: What about the “Plant response rating, Velvetleaf” value (velvetleaf; [6]) of the same molecule?
A: 0

Q: What about the “Blackgrass plant response rating” value (blackgrass; [1]) of the same molecule?
A: 0

Q: What about the “Blackgrass plant response rating (0 to 10 scale)” value (blackgrass; Preemergence, Rate 125 g/ha) of the same molecule?
A: 2

Q: What about the “Blackgrass plant response rating” value (blackgrass; [2]) of the same molecule?
A: 5

Q: What about the “Blackgrass plant response rating” value (blackgrass; [3]) of the same molecule?
A: 6

Q: What about the “Blackgrass plant response rating” value (blackgrass; [4]) of the same molecule?
A: 0

Q: And the “Blackgrass plant response rating” value (blackgrass; [5])?
A: 0

Q: And the “Plant response rating, Blackgrass” value (blackgrass; [6])?
A: 0

Q: What about the “Blackgrass plant response rating” value (blackgrass; [7]) of the same molecule?
A: 0

Q: What about the “Giant foxtail plant response rating” value (giant foxtail; [1]) of the same molecule?
A: 0

Q: And the “Giant foxtail plant response rating” value (giant foxtail; [2])?
A: 6

Q: And the “Giant foxtail plant response rating” value (giant foxtail; [3])?
A: 7

Q: What about the “Giant foxtail plant response rating” value (giant foxtail; [4]) of the same molecule?
A: 0

Q: What about the “Giant foxtail plant response rating” value (giant foxtail; [5]) of the same molecule?
A: 0

Q: What about the “Plant response rating, Giant foxtail” value (giant foxtail; [6]) of the same molecule?
A: 0

Q: And the “S. Flatsedge plant response rating” value (smallflower flatsedge; [8])?
A: 0

Q: And the “S. Flatsedge plant response rating” value (smallflower flatsedge; [9])?
A: 0

Q: What about the “S. Flatsedge plant response rating” value (smallflower flatsedge; [10]) of the same molecule?
A: 0

Q: And the “S. Flatsedge plant response rating” value (smallflower flatsedge; [11])?
A: 0

Q: And the “Redroot pigweed plant response rating” value (pigweed; [1])?
A: 0

Q: What about the “Redroot pigweed plant response rating (0 to 10 scale)” value (pigweed; Preemergence, Rate 125 g/ha) of the same molecule?
A: 0

Q: And the “Redroot pigweed plant response rating” value (pigweed; [2])?
A: 0

Q: And the “Redroot pigweed plant response rating” value (pigweed; [3])?
A: 0

Q: What about the “Redroot pigweed plant response rating” value (pigweed; [4]) of the same molecule?
A: 3

Q: And the “Redroot pigweed plant response rating” value (pigweed; [5])?
A: 6

Q: What about the “Plant response rating, Redroot pigweed” value (pigweed; [6]) of the same molecule?
A: 6

Q: What about the “Rape plant response rating” value (rape; [1]) of the same molecule?
A: 0

Q: What about the “Rape plant response rating (0 to 10 scale)” value (rape; Preemergence, Rate 125 g/ha) of the same molecule?
A: 0

Q: What about the “Rape plant response rating” value (rape; [2]) of the same molecule?
A: 0

Q: And the “Rape plant response rating” value (rape; [3])?
A: 0

Q: What about the “Rape plant response rating” value (rape; [4]) of the same molecule?
A: 0

Q: What about the “Rape plant response rating” value (rape; [5]) of the same molecule?
A: 3

Q: What about the “Plant response rating, Rape” value (rape; [6]) of the same molecule?
A: 3
